This passage reports IC50 results from patent publication US8658639B2, “N-substituted-cyclic amino derivative” (Dainippon Sumitomo Pharma Co., Ltd, priority 2009, dated 2014).

Counter-ions that a name gives are not always drawn.

The assay has as its target T1, Recombinant human renin (Homo sapiens, UniProt P00797).
T1 sequence (P00797 67-406): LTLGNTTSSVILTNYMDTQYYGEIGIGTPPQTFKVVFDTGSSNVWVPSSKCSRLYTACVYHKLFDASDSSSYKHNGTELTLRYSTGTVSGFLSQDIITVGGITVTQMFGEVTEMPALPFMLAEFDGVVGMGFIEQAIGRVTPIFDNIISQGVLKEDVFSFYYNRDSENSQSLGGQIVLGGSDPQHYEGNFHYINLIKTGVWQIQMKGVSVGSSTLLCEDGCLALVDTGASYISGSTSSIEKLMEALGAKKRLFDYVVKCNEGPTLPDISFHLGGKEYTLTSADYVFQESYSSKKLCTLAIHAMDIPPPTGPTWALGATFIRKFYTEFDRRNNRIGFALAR
Kind of assay: In vitro renin inhibitory activity assay. It counts as biochemical. As to conditions: recombinant human renin 4.2 ng/mL, substrate 4 μM, 37° C., one hour, pH 7.4. How it is done: Experiment 1: In Vitro Renin Inhibitory Activity Assay
Recombinant human renin (4.2 ng/mL) was reacted in 0.1M HEPES buffer (pH 7.4) containing 0.1M NaCl, 1 mM EDTA and 0.1 mg/mL BSA together with a substrate and a test compound at 37° C. for one hour. As the substrate, Arg-Glu(EDANS)-Ile-His-Pro-Phe-His-Leu-Val-Ile-His-Thr-Lys(DABCYL)-Arg (SEQ ID NO: 1) or DABCYL-γ-Abu-Ile-His-Pro-Phe-His-Leu-Val-Ile-His-Thr-EDANS (SEQ ID NO: 2) was added in such an amount so that the final concentration thereof became 4 μM. The elevated fluorescence intensity at the exciting wavelength 340 nm and the fluorescence wavelength 500 nm was measured by a fluorescence plate reader. The concentration of a test compound to be needed to inhibit an enzyme activity in the presence of a test compound in several concentrations by 50% was calculated as an IC50 value. The test compounds were diluted in DMSO and used in this Experiment.
As a reminder, the IC50 is the concentration needed to halve the response being measured. For the molecule `CCOC(=O)OC(C)OC(=O)N1CCCC(N(C(=O)c2cc3c(cc2C(F)(F)F)OC(C)(COC)C(=O)N3CCNC(=O)CC)C(C)C)C1` (stereo not shown) [Example 38], the IC50 is 58 nM.

On to `CCC(=O)NCCN1C(=O)C(C)(C)Oc2cc(C)c(C(=O)N(C(C)C)[C@@H]3CCCN(C(=O)OC(C)OC(=O)C(C)C)C3)cc21` (stereo partly drawn) [Example 1, 1-(Isobutyryloxy)ethyl (3R)-3-[isopropyl({2,2,7-trimethyl-3-oxo-4-[2-(propionylamino)ethyl]-3,4-dihydro-2H-1,4-benzoxazin-6-yl}carbonyl)amino]piperidine-1-carboxylate], for which the IC50 worked out at 160 nM.

On to `CCC(=O)NCCN1C(=O)C(C)(COC)Oc2cc(C)c(C(=O)N(C(C)C)C3CCCN(C(=O)OC(C)OC(=O)CC)C3)cc21` (stereo not shown) [Example 86], for which the IC50 came out at 14 nM.

For the molecule `CCC(=O)NCCN1C(=O)C(C)(C)Oc2cc(C)c(C(=O)N(C(C)C)C3CCCN(C(=O)OC(C)OC(=O)C(N)C(C)C)C3)cc21` (stereo not shown) [Example 62], the IC50 was 2.8 nM.

Consider `CCC(=O)NCCN1C(=O)C(C)(C)Oc2cc(C)c(C(=O)N(C(C)C)C3CCCN(C(=O)OC(C)OC(=O)OC(C)C)C3)cc21` (stereo not shown) [Example 8], for which the IC50 was 410 nM.

Consider `CCOC(=O)O[C@H](C)OC(=O)N1CCC[C@@H](N(C(=O)c2cc3c(cc2C)OC(C)(C)C(=O)N3CCNC(=O)CC)C(C)C)C1` [Example 91], for which the half-inhibitory concentration (IC50) is 710 nM.

As for `CCC(=O)NCCN1C(=O)C(C)(COC)Oc2cc(C(F)(F)F)c(C(=O)N(C(C)C)C3CCCN(C(=O)OC(OC(=O)CC)C(C)C)C3)cc21` (stereo not shown) [Example 75], the IC50 came out at 0.74 nM.

With `CCC(=O)NCCN1C(=O)C(C)(C)Oc2cc(C)c(C(=O)N(C(C)C)[C@@H]3CCCN(C(=O)OCOC(=O)OC)C3)cc21` [Example 9], the IC50 is 140 nM.

Take `CCC(=O)NCCN1C(=O)C2(CCC2)Oc2cc(C)c(C(=O)N(C(C)C)[C@@H]3CCCN(C(=O)O[C@@H](C)OC(=O)C(C)C)C3)cc21` [Example 83]: the IC50 stood at 505 nM.

In the case of `CCC(=O)NCCN1C(=O)C2(CC2)Oc2cc(C)c(C(=O)N(C(C)C)C3CCCN(C(=O)OC(C)OC(=O)C(C)C)C3)cc21` (stereo not shown) [Example 42], the IC50 was determined as 15 nM.

In the case of `CCC(=O)NCCN1C(=O)C2(CC2)Oc2cc(C)c(C(=O)N(C(C)C)C3CCCN(C(=O)OC(C)OC(=O)CC)C3)cc21` (stereo not shown) [Example 41], the IC50 was found to be 68 nM.

Regarding `CCC(=O)NCCN1C(=O)C2(CC2)Oc2cc(C)c(C(=O)N(C(C)C)[C@@H]3CCCN(C(=O)OCc4oc(=O)oc4C)C3)cc21` [Example 40], the 50% inhibitory concentration (IC50) stood at 2.6 nM.

In the case of `CCC(=O)NCCN1C(=O)[C@](C)(COC)Oc2cc(C)c(C(=O)N(C(C)C)[C@@H]3CCCN(C(=O)O[C@@H](C)OC(=O)C(C)C)C3)cc21` [Example 94], the IC50 came to 1890 nM.

For the molecule `CCC(=O)NCCN1C(=O)C2(CCC2)Oc2cc(C)c(C(=O)N(C(C)C)C3CCCN(C(=O)OC(C)OC(=O)CC(C)(C)O)C3)cc21` (stereo not shown) [Example 50], the IC50 came to 15 nM.

Consider `CCC(=O)NCCN1C(=O)C(C)(C)Oc2cc(C)c(C(=O)N(C(C)C)[C@@H]3CCCN(C(=O)O[C@@H](C)OC(=O)CC)C3)cc21` [Example 52], for which the IC50 came to 42 nM.

As to `Cc1oc(=O)oc1COC(=O)N1CCC[C@@H](N(C(=O)c2cc3c(cc2C(F)(F)F)OC2(CC2)C(=O)N3CCNC(=O)C(F)F)C(C)C)C1` [Example 71], the IC50 was determined as 2.5 nM.

Take `CC(OC(=O)C(C)C)OC(=O)N1CCCC(N(C(=O)c2cc3c(cc2C(F)(F)F)OC2(CC2)C(=O)N3CCNC(=O)C(F)F)C(C)C)C1` (stereo not shown) [Example 72]: the IC50 came to 22 nM.

With `CCC(=O)NCCN1C(=O)C2(CCC2)Oc2cc(C)c(C(=O)N(C(C)C)C3CCCN(C(=O)OC(C)OC(=O)C(F)F)C3)cc21` (stereo not shown) [Example 97], the IC50 was found to be 0.13 nM.

For `CCC(=O)NCCN1C(=O)C2(CCC2)Oc2cc(C)c(C(=O)N(C(C)C)C3CCCN(C(=O)OC(C)OC(C)=O)C3)cc21` (stereo not shown) [Example 33], the IC50 turned out to be 1.2 nM.

As to `CCC(=O)NCCN1C(=O)C2(CCC2)Oc2cc(C)c(C(=O)N(C(C)C)C3CCCN(C(=O)OC(C)OC(=O)CCCOC)C3)cc21` (stereo not shown) [Example 84], the IC50 turned out to be 21 nM.

Regarding `CCC(=O)NCCN1C(=O)C(C)(C)Oc2cc(C(F)(F)F)c(C(=O)N(C(C)C)[C@@H]3CCCN(Cc4oc(=O)oc4C)C3)cc21` [Example 31, N-Isopropyl-2,2-dimethyl-N-{(3R)-1-[(5-methyl-2-oxo-1,3-dioxol-4-yl)methyl]piperidin-3-yl}-3-oxo-4-[2-(propionylamino)ethyl]-7-(trifluoromethyl)-3,4-dihydro-2H-1,4-benzoxazine-6-carboxamide], the IC50 amounted to 0.38 nM.

In the case of `CCC(=O)NCCN1C(=O)C(C)(C)Oc2cc(C)c(C(=O)N(C(C)C)C3CCCN(C(=O)OC(C)OC(=O)C4CCOCC4)C3)cc21` (stereo not shown) [Example 60], the IC50 stood at 3.2 nM.

With `Cc1cc2c(cc1C(=O)N(C(C)C)[C@@H]1CCCN(C(=O)OCc3oc(=O)oc3C)C1)N(CCNC(=O)C(F)F)C(=O)C1(CCC1)O2` [Example 44], the IC50 was determined as 1.9 nM.

For the molecule `CCC(=O)NCCN1C(=O)C(C)(C)Oc2cc(C)c(C(=O)N(C(C)C)[C@@H]3CCCN(C(=O)O[C@@H](C)OC(=O)C(C)C)C3)cc21` [Example 66], the 50% inhibitory concentration (IC50) amounted to 1230 nM.

Regarding `CCC(=O)NCCN1C(=O)C(C)(COC)Oc2cc(C(F)(F)F)c(C(=O)N(C(C)C)C3CCCN(C(=O)OC(OC(=O)C(C)C)C(C)C)C3)cc21` (stereo not shown) [Example 76], the IC50 worked out at 0.56 nM.

In the case of `CCC(=O)NCCN1C(=O)C2(CC2)Oc2cc(C)c(C(=O)N(C(C)C)C3CCCN(C(=O)OC(C)OC(=O)C4CCOCC4)C3)cc21` (stereo not shown) [Example 43], the IC50 came out at 69 nM.

As to `CCC(=O)NCCN1C(=O)C(C)(C)Oc2cc(C)c(C(=O)N(C(C)C)[C@@H]3CCCN(C(=O)O[C@H](C)OC(=O)CC)C3)cc21` [Example 53], the IC50 was 48 nM.

On to `CCOC(=O)OC(C)OC(=O)N1CCCC(N(C(=O)c2cc3c(cc2C)OC2(CCC2)C(=O)N3CCNC(=O)CC)C(C)C)C1` (stereo not shown) [Example 34], for which the IC50 came out at 140 nM.

Turning to `CCC(=O)NCCN1C(=O)C2(CCC2)Sc2cc(C)c(C(=O)N(C(C)C)[C@@H]3CCCN(C(=O)OCc4oc(=O)oc4C)C3)cc21` [Example 78], the IC50 was determined as 20 nM.

As for `CCC(=O)NCCN1C(=O)C2(CCC2)Oc2cc(C)c(C(=O)N(C(C)C)C3CCCN(C(=O)OC(C)OC(=O)COC)C3)cc21` (stereo not shown) [Example 49], the IC50 was 14 nM.

For the molecule `CCC(=O)NCCN1C(=O)C(C)(C)Oc2cc(C)c(C(=O)N(C(C)C)[C@@H]3CCCN(C(=O)OCOC(=O)OC4CCOCC4)C3)cc21` [Example 13], the concentration for half-maximal inhibition (IC50) came out at 5.1 nM.

Take `CCC(=O)NCCN1C(=O)C(C)(C)Oc2cc(C)c(C(=O)N(C(C)C)C3CCCN(C(=O)OC(C)OC(=O)CC)C3)cc21` (stereo not shown) [Example 18]: the IC50 amounted to 3.6 nM.

`CCC(=O)NCCN1C(=O)C(C)(C)Oc2cc(C)c(C(=O)N(C(C)C)C3CCCN(C(=O)OC(C)OC(=O)OC4CCCCC4)C3)cc21` (stereo not shown) [Example 54]: the IC50 was 13 nM.

In the case of `CCC(=O)NCCN1C(=O)C(C)(C)Oc2cc(C)c(C(=O)N(C(C)C)C3CCCN(C(=O)OC(C)OC(=O)CC4CC4)C3)cc21` (stereo not shown) [Example 98], the IC50 came to 9.1 nM.

In the case of `CCOC(=O)O[C@@H](C)OC(=O)N1CCC[C@@H](N(C(=O)c2cc3c(cc2C)OC(C)(C)C(=O)N3CCNC(=O)CC)C(C)C)C1` [Example 90], the IC50 came out at 730 nM.

With `CCC(=O)NCCN1C(=O)C(C)(C)Oc2cc(C)c(C(=O)N(C(C)C)[C@@H]3CCCN(C(=O)OCOC(=O)OC4CCC4)C3)cc21` [Example 12], the IC50 amounted to 160 nM.

For the molecule `CCC(=O)NCCN1C(=O)C(C)(C)Oc2cc(C)c(C(=O)N(C(C)C)C3CCCN(C(=O)OC(C)OC(=O)c4cccnc4)C3)cc21` (stereo not shown) [Example 59], the half-inhibitory concentration (IC50) is 38 nM.

Consider `CCC(=O)NCCN1C(=O)C(C)(C)Oc2cc(C(F)(F)F)c(C(=O)N(C(C)C)[C@@H]3CCCN(C(=O)[C@@H](N)C(C)C)C3)cc21` [Example 22, N-Isopropyl-2,2-dimethyl-3-oxo-4-[2-(propionylamino)ethyl]-7-(trifluoromethyl)-N-[(3R)-1-L-valylpiperidin-3-yl]-3,4-dihydro-2H-1,4-benzoxazine-6-carboxamide hydrochloride], for which the IC50 stood at 85 nM.

As to `CCC(=O)NCCN1C(=O)C2(CCC2)Oc2cc(C)c(C(=O)N(C(C)C)C3CCCN(C(=O)OC(C)OC(=O)C(C)C)C3)cc21` (stereo not shown) [Example 47], the 50% inhibitory concentration (IC50) was 76 nM.

In the case of `CCC(=O)NCCN1C(=O)C2(CCC2)Oc2cc(C)c(C(=O)N(C(C)C)C3CCCN(C(=O)OC(OC(C)=O)C(C)C)C3)cc21` (stereo not shown) [Example 35], the IC50 stood at 2.7 nM.

On to `CCC(=O)NCCN1C(=O)C(C)(COC)Oc2cc(C(F)(F)F)c(C(=O)N(C(C)C)C3CCCN(C(=O)OC(C)OC(=O)C(C)C)C3)cc21` (stereo not shown) [Example 74], for which the IC50 was 22 nM.

As for `CCC(=O)NCCN1C(=O)C(C)(C)Oc2cc(C(F)(F)F)c(C(=O)N(C(C)C)C3CCCN(C(=O)OC(C)OC(=O)C(C)C)C3)cc21` (stereo not shown) [Example 26], the IC50 stood at 21 nM.

In the case of `Cc1cc2c(cc1C(=O)N(C(C)C)[C@@H]1CCCN(C(=O)OCc3oc(=O)oc3C)C1)N(CCNC(=O)C(F)F)C(=O)C1(CC1)O2` [Example 39], the IC50 was determined as 3.6 nM.
